Source: the kinase profiling compilation of Christmann-Franck et al. (2016)

How the values were obtained:
Test in all cases: radiometric filter-binding kinase assay
AURKC (human) = AURKC (human) (UniProt Q9UQB9)
CAMKK1 (human) = CAMKK1 (human) (UniProt Q8N5S9)
MAPKAPK3 (human) = MAPKAPK3 (human) (UniProt Q16644)
NEK7 (human) = NEK7 (human) (UniProt Q8TDX7)
PRKAA1 or PRKAA2 (rat) = conditions: accession and sequence are those of the human protein

NEK7 (human), sequence (Q8TDX7 whole entry, looked up): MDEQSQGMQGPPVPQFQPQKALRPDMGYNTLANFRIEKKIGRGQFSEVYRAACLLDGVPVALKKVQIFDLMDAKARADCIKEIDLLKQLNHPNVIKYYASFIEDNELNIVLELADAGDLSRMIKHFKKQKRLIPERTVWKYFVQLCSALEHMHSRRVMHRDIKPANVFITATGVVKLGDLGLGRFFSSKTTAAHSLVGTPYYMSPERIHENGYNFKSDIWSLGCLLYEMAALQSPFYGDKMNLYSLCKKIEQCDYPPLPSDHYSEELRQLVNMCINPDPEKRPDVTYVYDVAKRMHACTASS
MAPKAPK3 (human), sequence (Q16644 whole entry, looked up): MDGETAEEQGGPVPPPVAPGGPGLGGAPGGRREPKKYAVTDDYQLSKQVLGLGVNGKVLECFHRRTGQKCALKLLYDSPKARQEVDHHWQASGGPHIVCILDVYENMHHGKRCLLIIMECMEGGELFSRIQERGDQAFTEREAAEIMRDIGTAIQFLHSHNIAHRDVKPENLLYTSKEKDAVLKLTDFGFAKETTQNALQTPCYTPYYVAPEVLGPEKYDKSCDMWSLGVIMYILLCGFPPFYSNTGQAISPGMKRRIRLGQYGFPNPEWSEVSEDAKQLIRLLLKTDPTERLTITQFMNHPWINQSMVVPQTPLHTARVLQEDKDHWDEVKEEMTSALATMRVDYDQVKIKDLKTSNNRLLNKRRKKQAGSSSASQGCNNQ
AURKC (human), sequence (Q9UQB9 whole entry, looked up): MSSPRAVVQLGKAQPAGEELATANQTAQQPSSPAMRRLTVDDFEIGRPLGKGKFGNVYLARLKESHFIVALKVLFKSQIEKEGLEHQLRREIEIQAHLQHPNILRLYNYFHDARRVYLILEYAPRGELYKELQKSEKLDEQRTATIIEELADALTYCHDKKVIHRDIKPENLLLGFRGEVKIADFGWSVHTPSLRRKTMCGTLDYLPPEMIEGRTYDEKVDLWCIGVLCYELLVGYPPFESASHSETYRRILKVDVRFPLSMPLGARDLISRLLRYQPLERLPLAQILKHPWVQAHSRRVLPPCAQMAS
CAMKK1 (human), sequence (Q8N5S9 whole entry, looked up): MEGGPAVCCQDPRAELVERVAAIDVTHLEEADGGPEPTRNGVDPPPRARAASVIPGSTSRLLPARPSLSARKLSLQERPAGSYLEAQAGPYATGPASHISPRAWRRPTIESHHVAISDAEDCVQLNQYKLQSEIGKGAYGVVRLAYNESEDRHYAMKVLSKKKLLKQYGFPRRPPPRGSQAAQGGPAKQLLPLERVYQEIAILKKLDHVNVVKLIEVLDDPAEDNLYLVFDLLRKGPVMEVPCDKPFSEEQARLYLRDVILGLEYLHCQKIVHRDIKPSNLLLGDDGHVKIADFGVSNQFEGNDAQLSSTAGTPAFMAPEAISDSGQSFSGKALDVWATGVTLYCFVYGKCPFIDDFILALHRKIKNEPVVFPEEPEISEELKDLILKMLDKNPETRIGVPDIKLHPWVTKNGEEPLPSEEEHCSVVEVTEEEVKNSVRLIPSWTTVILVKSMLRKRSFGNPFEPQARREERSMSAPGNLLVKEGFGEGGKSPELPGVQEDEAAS

Structure (SMILES) | residual activity (AURKC (human); compound 1.0 µM) [%] | residual activity (AURKC (human); compound 50.0 µM) [%] | residual activity (CAMKK1 (human); compound 1.0 µM) [%] | residual activity (CAMKK1 (human); compound 50.0 µM) [%] | residual activity (MAPKAPK3 (human); compound 1.0 µM) [%] | residual activity (MAPKAPK3 (human); compound 10.0 µM) [%] | residual activity (MAPKAPK3 (human); compound 50.0 µM) [%] | residual activity (NEK7 (human); compound 1.0 µM) [%] | residual activity (NEK7 (human); compound 50.0 µM) [%] | residual activity (PRKAA1 or PRKAA2 (rat); compound 1.0 µM) [%] | residual activity (PRKAA1 or PRKAA2 (rat); compound 10.0 µM) [%] | residual activity (PRKAA1 or PRKAA2 (rat); compound 50.0 µM) [%] | residual activity (MAPKAPK3 (human); compound 100.0 µM) [%] | residual activity (PRKAA1 or PRKAA2 (rat); compound 100.0 µM) [%] | residual activity (AURKC (human); compound 10.0 µM) [%] | residual activity (CAMKK1 (human); compound 10.0 µM) [%] | residual activity (NEK7 (human); compound 10.0 µM) [%]
Oc1ccc(/C=C/c2cc(O)cc(O)c2)cc1 | 75 | 32 | 98 | 30 | 121 | 64 | 97 | 94 | 95 | 103 | 73 | 16 | – | – | – | – | –
N#Cc1c(O)c2c(-c3ccc(-c4ccccc4O)cc3)csc2[nH]c1=O | – | 30 | – | – | – | 57 | 48 | – | 102 | – | 135 | 67 | 8 | 62 | – | – | –
Cc1cccc(Nc2nn(C)c3ncnc(N)c23)c1 | 92 | – | 111 | – | 91 | 130 | – | 88 | – | 111 | 114 | – | – | – | 117 | 114 | 91
CCCC(CCC)C(=O)O | – | – | – | – | 90 | 93 | 97 | 99 | – | 98 | 94 | 91 | – | – | – | – | –
